Targets include PIK3CA(H1047Y) (Homo sapiens, UniProt P42336, H1047Y); MKNK2 (Homo sapiens, UniProt Q9HBH9); IRAK1 (Homo sapiens, UniProt P51617); CAMK2B (Homo sapiens, UniProt Q13554).
What all share (test): biochemical
Holding throughout (design): DiscoveRx KINOMEscan active site-directed competition binding; percent of control kinase bound to immobilised ligand

A further test addresses T1, ZAP70 (Homo sapiens, UniProt P43403).
T1 sequence (P43403 1-619): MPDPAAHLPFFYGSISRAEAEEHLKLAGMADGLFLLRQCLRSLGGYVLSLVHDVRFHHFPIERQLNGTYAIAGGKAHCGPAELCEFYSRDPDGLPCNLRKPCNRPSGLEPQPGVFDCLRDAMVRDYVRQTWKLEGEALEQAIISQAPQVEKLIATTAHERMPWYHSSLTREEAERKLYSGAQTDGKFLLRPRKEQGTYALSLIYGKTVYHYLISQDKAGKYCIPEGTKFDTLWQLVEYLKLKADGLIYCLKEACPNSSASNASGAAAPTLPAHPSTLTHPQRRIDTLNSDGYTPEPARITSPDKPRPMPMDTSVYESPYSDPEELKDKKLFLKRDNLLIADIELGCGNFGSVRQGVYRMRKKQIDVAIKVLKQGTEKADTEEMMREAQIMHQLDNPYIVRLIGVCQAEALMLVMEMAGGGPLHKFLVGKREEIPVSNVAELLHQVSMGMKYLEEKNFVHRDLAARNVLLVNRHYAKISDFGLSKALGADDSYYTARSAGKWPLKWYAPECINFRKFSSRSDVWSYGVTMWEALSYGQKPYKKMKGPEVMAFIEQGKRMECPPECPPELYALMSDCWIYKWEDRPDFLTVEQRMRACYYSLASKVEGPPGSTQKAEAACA

For a further test, the target named is T2, PAK7 (Homo sapiens, UniProt Q9P286).
T2 construct: gene PAK5
T2 sequence (Q9P286 whole entry): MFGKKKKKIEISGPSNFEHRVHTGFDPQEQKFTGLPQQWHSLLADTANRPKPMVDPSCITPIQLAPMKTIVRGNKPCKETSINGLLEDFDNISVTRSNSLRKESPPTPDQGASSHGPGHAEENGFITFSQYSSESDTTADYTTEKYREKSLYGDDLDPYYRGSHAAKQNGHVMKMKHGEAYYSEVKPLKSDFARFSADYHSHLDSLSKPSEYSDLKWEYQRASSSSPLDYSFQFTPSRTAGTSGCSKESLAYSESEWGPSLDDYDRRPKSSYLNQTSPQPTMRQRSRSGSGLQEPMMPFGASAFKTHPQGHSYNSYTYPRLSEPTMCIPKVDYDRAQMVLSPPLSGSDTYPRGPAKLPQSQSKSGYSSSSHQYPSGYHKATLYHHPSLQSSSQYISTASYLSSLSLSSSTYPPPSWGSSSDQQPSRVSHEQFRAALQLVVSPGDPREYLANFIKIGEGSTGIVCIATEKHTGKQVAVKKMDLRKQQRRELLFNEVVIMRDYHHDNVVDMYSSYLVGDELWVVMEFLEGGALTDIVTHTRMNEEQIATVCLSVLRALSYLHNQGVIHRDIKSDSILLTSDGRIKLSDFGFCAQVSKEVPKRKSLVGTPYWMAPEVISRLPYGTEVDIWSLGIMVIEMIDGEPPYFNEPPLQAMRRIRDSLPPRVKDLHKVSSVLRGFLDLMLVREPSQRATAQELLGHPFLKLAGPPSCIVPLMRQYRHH

For another test, the target named is T3, PKMYT1 (Homo sapiens, UniProt Q99640).
T3 sequence (Q99640 1-499): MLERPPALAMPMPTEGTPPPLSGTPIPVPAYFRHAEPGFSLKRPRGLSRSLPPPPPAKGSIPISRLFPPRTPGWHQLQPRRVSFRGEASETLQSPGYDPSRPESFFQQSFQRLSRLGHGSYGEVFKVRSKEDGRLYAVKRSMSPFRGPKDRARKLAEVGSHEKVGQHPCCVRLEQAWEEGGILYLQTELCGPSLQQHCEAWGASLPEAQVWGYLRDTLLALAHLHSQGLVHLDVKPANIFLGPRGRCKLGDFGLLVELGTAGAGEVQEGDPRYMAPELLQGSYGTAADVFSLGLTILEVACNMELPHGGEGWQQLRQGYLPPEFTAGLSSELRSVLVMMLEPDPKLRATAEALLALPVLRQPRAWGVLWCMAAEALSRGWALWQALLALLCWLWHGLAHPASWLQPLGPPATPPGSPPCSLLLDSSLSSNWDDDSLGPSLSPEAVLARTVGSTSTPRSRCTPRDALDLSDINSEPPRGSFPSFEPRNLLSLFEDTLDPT

The target of the next test is T4, MLK3 (Homo sapiens, UniProt Q16584).
T4 construct: gene MAP3K11

The next test deals with T5, NIK (Homo sapiens, UniProt Q99558).
T5 construct: gene MAP3K14
T5 sequence (Q99558 whole entry): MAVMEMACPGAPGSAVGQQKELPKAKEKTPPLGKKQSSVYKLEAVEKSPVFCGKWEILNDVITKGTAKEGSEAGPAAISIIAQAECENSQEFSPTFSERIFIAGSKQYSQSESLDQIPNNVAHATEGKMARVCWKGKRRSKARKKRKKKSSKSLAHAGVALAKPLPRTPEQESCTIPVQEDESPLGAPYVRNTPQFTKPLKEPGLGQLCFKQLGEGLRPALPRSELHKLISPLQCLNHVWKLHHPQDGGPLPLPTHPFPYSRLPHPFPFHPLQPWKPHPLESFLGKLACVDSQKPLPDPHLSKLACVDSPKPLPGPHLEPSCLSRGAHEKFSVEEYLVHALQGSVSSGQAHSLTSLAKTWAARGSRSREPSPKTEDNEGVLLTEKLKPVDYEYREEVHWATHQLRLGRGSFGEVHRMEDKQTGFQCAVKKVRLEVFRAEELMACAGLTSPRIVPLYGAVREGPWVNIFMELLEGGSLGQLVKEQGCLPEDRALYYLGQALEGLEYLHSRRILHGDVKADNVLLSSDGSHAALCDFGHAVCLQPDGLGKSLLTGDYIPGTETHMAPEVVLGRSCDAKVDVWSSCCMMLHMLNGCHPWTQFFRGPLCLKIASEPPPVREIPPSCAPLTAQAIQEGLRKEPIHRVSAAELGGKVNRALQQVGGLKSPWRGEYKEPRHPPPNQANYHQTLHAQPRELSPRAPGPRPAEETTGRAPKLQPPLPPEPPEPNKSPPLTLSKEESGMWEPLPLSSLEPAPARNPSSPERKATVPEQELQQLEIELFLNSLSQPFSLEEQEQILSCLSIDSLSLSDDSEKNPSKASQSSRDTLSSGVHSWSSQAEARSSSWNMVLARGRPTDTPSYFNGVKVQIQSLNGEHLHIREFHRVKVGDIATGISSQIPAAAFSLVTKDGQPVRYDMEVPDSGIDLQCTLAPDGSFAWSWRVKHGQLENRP

[1] abbreviates: read-out: Niraparib (MK-4827) / %Ctrl @ 10000nM.
The mark [2] stands for this setting: read-out: Olaparib / %Ctrl @ 10000nM.
Setting [3] is: read-out: Rucaparib / %Ctrl @ 10000nM, binding competition, % of control.
Setting [4] is: read-out: Talazoparib (BMN 673) / %Ctrl @ 10000nM.

Data on four compounds can be found in PMC7026418, “The kinase polypharmacology landscape of clinical PARP inhibitors” (Scientific Reports, 2020).

Where two headings read alike, the source gives them in different places.

Chain of PIK3CA(H1047Y) (P42336 whole entry H1047Y): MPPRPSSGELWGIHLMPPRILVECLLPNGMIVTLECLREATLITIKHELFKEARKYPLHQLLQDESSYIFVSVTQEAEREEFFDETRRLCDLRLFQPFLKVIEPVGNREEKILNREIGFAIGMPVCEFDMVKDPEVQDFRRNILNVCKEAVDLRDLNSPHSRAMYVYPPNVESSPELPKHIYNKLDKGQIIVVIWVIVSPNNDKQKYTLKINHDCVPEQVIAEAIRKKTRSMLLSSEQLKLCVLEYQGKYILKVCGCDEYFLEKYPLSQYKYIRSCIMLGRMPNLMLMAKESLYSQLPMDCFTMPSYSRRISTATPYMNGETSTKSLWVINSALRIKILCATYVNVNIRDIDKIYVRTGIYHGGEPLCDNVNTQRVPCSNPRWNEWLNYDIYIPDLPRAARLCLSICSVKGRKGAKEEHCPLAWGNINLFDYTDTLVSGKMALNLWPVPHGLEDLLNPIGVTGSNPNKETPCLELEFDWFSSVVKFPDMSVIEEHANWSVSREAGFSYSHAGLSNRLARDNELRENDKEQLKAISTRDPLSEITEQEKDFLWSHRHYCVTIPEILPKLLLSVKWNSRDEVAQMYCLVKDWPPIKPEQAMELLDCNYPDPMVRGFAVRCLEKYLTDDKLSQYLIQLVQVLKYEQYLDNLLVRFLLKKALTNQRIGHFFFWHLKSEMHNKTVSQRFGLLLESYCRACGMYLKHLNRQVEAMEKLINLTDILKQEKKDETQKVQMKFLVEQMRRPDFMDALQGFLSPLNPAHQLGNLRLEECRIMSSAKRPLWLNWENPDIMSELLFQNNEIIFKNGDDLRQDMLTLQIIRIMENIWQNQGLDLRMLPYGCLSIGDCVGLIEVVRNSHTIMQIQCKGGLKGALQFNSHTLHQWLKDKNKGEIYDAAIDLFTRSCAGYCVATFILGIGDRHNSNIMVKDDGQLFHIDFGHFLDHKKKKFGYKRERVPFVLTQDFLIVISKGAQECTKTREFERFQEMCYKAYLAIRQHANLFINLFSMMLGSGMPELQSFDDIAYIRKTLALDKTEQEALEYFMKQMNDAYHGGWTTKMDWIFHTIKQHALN
Chain of CAMK2B (Q13554 whole entry): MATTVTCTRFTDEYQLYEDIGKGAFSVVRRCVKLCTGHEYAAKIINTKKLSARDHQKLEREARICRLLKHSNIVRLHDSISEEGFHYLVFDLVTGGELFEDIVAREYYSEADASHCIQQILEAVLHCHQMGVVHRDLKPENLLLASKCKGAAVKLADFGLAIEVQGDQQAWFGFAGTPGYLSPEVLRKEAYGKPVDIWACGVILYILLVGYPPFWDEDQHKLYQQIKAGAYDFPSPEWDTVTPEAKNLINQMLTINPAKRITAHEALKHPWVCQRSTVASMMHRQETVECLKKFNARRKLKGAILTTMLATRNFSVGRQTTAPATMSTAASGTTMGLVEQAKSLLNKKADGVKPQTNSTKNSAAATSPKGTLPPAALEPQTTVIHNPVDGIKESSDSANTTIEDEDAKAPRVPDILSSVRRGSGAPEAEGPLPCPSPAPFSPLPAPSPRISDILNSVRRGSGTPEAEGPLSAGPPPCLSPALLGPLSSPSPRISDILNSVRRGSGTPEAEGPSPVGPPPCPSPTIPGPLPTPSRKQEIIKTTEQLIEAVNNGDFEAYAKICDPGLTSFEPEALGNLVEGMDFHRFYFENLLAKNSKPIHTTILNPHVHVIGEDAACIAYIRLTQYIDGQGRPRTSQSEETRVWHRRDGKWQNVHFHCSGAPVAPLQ
Chain of IRAK1 (P51617 whole entry): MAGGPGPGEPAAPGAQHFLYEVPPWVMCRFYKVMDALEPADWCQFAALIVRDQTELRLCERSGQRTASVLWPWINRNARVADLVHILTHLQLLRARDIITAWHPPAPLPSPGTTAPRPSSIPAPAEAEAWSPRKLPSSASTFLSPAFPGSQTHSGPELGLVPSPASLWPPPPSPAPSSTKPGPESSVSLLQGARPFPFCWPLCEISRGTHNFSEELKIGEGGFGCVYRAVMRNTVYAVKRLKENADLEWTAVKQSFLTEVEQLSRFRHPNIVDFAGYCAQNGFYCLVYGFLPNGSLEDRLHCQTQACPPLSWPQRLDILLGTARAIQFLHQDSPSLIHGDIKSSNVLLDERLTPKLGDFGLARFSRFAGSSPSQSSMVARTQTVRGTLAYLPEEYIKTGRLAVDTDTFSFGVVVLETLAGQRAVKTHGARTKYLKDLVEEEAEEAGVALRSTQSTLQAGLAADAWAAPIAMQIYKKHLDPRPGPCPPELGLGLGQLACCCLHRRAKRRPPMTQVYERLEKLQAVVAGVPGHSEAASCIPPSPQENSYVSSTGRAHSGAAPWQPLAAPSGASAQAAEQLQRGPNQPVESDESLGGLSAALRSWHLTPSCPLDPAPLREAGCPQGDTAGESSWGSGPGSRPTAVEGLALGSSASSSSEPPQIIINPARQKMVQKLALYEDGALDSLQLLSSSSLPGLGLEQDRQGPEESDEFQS
Chain of MKNK2 (Q9HBH9 whole entry): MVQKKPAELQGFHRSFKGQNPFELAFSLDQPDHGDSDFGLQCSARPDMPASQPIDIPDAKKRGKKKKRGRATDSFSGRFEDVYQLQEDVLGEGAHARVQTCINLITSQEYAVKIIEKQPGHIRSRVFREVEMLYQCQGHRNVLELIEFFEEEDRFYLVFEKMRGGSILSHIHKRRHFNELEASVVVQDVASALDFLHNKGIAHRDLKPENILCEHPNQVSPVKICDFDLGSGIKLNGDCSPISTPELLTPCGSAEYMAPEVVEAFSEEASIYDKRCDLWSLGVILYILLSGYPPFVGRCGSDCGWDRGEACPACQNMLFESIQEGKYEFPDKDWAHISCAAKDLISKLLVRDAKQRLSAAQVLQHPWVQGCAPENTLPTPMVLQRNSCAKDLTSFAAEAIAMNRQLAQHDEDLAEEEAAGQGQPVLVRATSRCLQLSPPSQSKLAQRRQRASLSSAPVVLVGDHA

Take `NC(=O)c1cccc2cn(-c3ccc([C@@H]4CCCNC4)cc3)nc12` [Niraparib]: the percent of control binding at 10 µM amounted to 100% at ZAP70 (setting [1]); 66% at PIK3CA(H1047Y) (setting [1]); 71% at MKNK2 (setting [1]); 86% on PAK7 (setting [1]); 18% at IRAK1 (setting [1]); 90% on CAMK2B (setting [1]). The values for the percent of control binding at 10 µM at PKMYT1 (setting [1]), on MLK3 (setting [1]) and on NIK (setting [1]) were 93%, 84% and 100%, respectively.

Consider `O=C(c1cc(Cc2n[nH]c(=O)c3ccccc23)ccc1F)N1CCN(C(=O)C2CC2)CC1` [Olaparib], for which the percent of control binding at 10 µM on ZAP70 (setting [2]) was 93%; at PIK3CA(H1047Y) (setting [2]), 100%; on MKNK2 (setting [2]), 87%; at PAK7 (setting [2]), 100%; on IRAK1 (setting [2]) it was 82%; at CAMK2B (setting [2]), 96%. For the same compound, the percent of control binding at 10 µM on PKMYT1 (setting [2]) was 100%; on MLK3 (setting [2]) it was 100%; on NIK (setting [2]), 89%.

Consider `CNCc1ccc(-c2[nH]c3cc(F)cc4c3c2CCNC4=O)cc1` [Rucaparib], for which the percent of control binding at 10 µM turned out to be 80% at ZAP70 (setting [3]); 75% on PIK3CA(H1047Y) (setting [3]); 38% on MKNK2 (setting [3]); 86% on PAK7 (setting [3]); 19% on IRAK1 (setting [3]); 86% on CAMK2B (setting [3]). The percent of control binding at 10 µM on PKMYT1 (setting [3]) was 100%; on MLK3 (setting [3]), 92%; at NIK (setting [3]), 74%.

Regarding `Cn1ncnc1[C@H]1c2n[nH]c(=O)c3cc(F)cc(c23)N[C@@H]1c1ccc(F)cc1` [Talazoparib], the percent of control binding at 10 µM worked out at 100% at ZAP70 (setting [4]); 89% on PIK3CA(H1047Y) (setting [4]); 80% at MKNK2 (setting [4]); 100% at PAK7 (setting [4]); 88% on IRAK1 (setting [4]); 92% at CAMK2B (setting [4]). Also, the percent of control binding at 10 µM at PKMYT1 (setting [4]) amounted to 100%; on MLK3 (setting [4]), 70%; at NIK (setting [4]) it was 100%.
